From US20200239962A1, “COMPOSITIONS AND METHODS FOR DETECTING A NEOPLASIA” (The Johns Hopkins University, priority 2010, published 2020)

Tested on: BNC1 and ADAMTS1 gene expression in pancreatic cancer cell lines (Panc1, MIA-PaCa2, Capan1, PL45)
Test: Quantitative RT-PCR re-expression of silenced BNC1 and ADAMTS1 after drug treatment
Assay type: cell-based, human
Settings: 5 uM DAC or 300 nM TSA, relative to mock-treated cells; TSA result excepts PL45
Protocol: FIGS. 2A, 2B, and 2C depict promoter methylation gels and corresponding bar graphs, a CpG methylation diagram, and a schematic depicting methylation-on-bead (MOB) technology, respectively. […] M=methylation signal; U=unmethylated signal. IVD=in vitro methylated DNA. Real-time RT-PCR expression is shown as fold change ±SE relative to mock-treated cells during 5 uM 5-Aza-deoxycitidine (DAC) and 300 nM Trichostatin A (TSA) treatments. […] The BNC1 promoter regions is depicted as a line, with CpG regions designated as vertical slashes. TIS indicates the transcriptional start site. Location of CpG sites (bisulfite priners (BST): upstream region from −331 to +36 relative to transcriptional start site). […] Samples are analyzed using MS-qFRET or gel electrophoresis.
This genome-wide DNA hypermethylome screening is based on a pharmacological approach using 5-deoxy-azacytidineand TSA, which has shown an excellent correlation between promoter DNA methylation and inhibition of gene expression and re-expression after treatment with a DNA demethylating drug, such as 5-deoxy-azacytidine, in prior studies on breast and colorectal cancer. Here, promoter methylation of BNC1 and ADAMTS1 was tested, and correlated with a lack of gene expression in pancreatic cancer cell lines (Panc1, MIA-PaCa2, Capan1, and PL45) using quantitative RT-PCR (qRT-PCR) (FIG. 2A, upper panel). […]

Row | Structure (SMILES) | re-expression of BNC1 and ADAMTS1 (qRT-PCR)
1 | CC(/C=C/C(=O)NO)=C\[C@@H](C)C(=O)c1ccc(N(C)C)cc1 [TSA, Trichostatin A] | minimal re-expression
2 | Nc1ncn([C@H]2C[C@H](O)[C@@H](CO)O2)c(=O)n1 [5-deoxy-azacytidine] | significant re-expression
